# Data as given in paper PMC7503597 (International Journal of Molecular Sciences, 2020).
# Target: T1, D3R-ELucC (Homo sapiens, UniProt P35462)
# T1 construct: gene DRD3
# Assay: cell-based
# Conditions: HEK-293T, read-out: β-Arrestin2 Recruitment / Emax [%]
# T1 sequence (P35462 whole entry): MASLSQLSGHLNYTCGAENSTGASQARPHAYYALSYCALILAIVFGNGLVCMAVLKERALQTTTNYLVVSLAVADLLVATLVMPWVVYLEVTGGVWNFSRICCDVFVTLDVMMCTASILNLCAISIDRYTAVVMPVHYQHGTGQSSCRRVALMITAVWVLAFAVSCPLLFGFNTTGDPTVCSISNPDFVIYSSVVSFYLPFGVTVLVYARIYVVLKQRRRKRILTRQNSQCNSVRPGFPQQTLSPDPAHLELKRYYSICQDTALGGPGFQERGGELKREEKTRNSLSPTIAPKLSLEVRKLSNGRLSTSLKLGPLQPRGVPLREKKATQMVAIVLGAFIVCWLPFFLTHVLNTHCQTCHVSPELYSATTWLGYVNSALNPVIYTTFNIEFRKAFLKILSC
structure (smiles),measurement,value
CCN1CCC[C@H]1CNC(=O)c1cc(S(N)(=O)=O)ccc1OC [S-(−)-sulpiride],Emax,-26 ± 8%
